Results taken from patent US10952992B2, “Methods of treating intraocular pressure with activators of Tie-2” (Aerpio Pharmaceuticals, Inc., priority 2015, dated 2021).
Where “and” joins values, the source holds several entries; their conditions need not be identical. Equal values may be shown once. Where a name gives a salt, the structure may show the parent alone.

Experiment: Example 2 iris, retina, choroid and cornea tissue concentrations
Assay type: in vivo, male New Zealand White rabbits
Details: for Average / Conc. (ng/g) OD / Conc. (ng/g) OS / Conc. (ng/mL) OD / Conc. (ng/mL) OS: sodium salt; for Average Peak Concentration, Choroid / Average Peak Concentration, Cornea / Average Peak Concentration, Iris / Average Peak Concentration, Retina: solution
Experimental: To measure the concentration of Compound 1 in plasma and ocular tissues following topical ocular, subcutaneous, and intravitreal administration, New Zealand White rabbits were administered Compound 1, and plasma and ocular samples were collected at pre-determined time points. Compound 1 formulations were prepared fresh on each day of dosing.
Ocular tissue samples from both eyes of each animal were collected and weights were recorded. Plasma and ocular tissue sample concentrations of Compound 1 were determined by LC-MS/MS.
Animals were anesthetized for ocular (topical) and intravitreal dosing following the 12IA7 IACUC protocol. Each rabbit received a bolus dose of test formulation either via topical ocular administration 3 times daily on Days 1 and 2 (at 0, 6, and 12 hours), and once on Day 3 (at 0 hours) into both eyes; via intravitreal administration into both eyes once on Day 1 (at 0 hours); or via subcutaneous administration 2 times daily on Days 1 and 2 (at 0 and 8 hours) and once daily on Day 3 (at 0 hours). Doses were given within an approximately 1 hour window each day where applicable.
On Day 1, for intravitreal administration, or on Day 3, for topical ocular and subcutaneous administration, at the appropriate ocular tissue collection time points, animals were euthanized and both eyes were enucleated immediately. Following enucleation, each eye was rinsed with phosphate-buffered saline. Ocular tissue samples from both eyes of each animal were collected at predetermined time points and weights were recorded. All the samples were frozen immediately on dry ice, and stored at −60° C. to −80° C. pending bioanalysis.
An LC-MS/MS method was developed for the determination of Compound 1 in rabbit aqueous tissues (plasma, aqueous and vitreous humor) and solid ocular tissue samples. A pre-study standard curve was analyzed to determine the specificity, range, and lower limit of quantitation of the method. Plasma and tissue homogenate study samples were extracted and analyzed. All the samples were treated identically to the standards.
One eight-point standard curve was used in each analytical batch. To be accepted, each batch must have had at least five of eight standards with accuracy within ±20% of nominal, except at the lower limit of quantification (LLOQ), where ±25% was acceptable.

[1] = Choroid, 0.5 hr, subcutaneous 5 mg/kg/dose (Group 2)
[2] = Choroid, 1 hr, subcutaneous 5 mg/kg/dose (Group 2)
[3] = Choroid, 1 hr, topical ocular 1.2 mg/eye (Group 1)
[4] = Choroid, 2 hr, topical ocular 1.2 mg/eye (Group 1)
[5] = Choroid, 4 hr, subcutaneous 5 mg/kg/dose (Group 2)
[6] = Choroid, 4 hr, topical ocular 1.2 mg/eye (Group 1)
[7] = Cornea, 0.5 hr, subcutaneous 5 mg/kg/dose (Group 2)
[8] = Cornea, 0.5 hr, topical ocular 1.2 mg/eye (Group 1)
[9] = Cornea, 1 hr, subcutaneous 5 mg/kg/dose (Group 2)
[10] = Cornea, 1 hr, topical ocular 1.2 mg/eye (Group 1)
[11] = Cornea, 2 hr, subcutaneous 5 mg/kg/dose (Group 2)
[12] = Cornea, 4 hr, subcutaneous 5 mg/kg/dose (Group 2)
[13] = Cornea, 4 hr, topical ocular 1.2 mg/eye (Group 1)
[14] = Group 1: topical ocular 0.70 mg/kg/dose
[15] = Group 2: subcutaneous 5 mg/kg/dose
[16] = Group 4: intravitreal 1.55 mg/kg/dose
[17] = Iris, 0.5 hr, subcutaneous 5 mg/kg/dose (Group 2)
[18] = Iris, 0.5 hr, topical ocular 1.2 mg/eye (Group 1)
[19] = Iris, 1 hr, subcutaneous 5 mg/kg/dose (Group 2)
[20] = Iris, 4 hr, subcutaneous 5 mg/kg/dose (Group 2)
[21] = Iris, 4 hr, topical ocular 1.2 mg/eye (Group 1)
[22] = Retina, 0.5 hr, subcutaneous 5 mg/kg/dose (Group 2)
[23] = Retina, 0.5 hr, topical ocular 1.2 mg/eye (Group 1)
[24] = Retina, 1 hr, subcutaneous 5 mg/kg/dose (Group 2)
[25] = Retina, 1 hr, topical ocular 1.2 mg/eye (Group 1)
[26] = Retina, 2 hr, subcutaneous 5 mg/kg/dose (Group 2)
[27] = Retina, 4 hr, subcutaneous 5 mg/kg/dose (Group 2)
[28] = Retina, 4 hr, topical ocular 1.2 mg/eye (Group 1)

With COC(=O)N[C@@H](Cc1ccccc1)C(=O)N[C@@H](Cc1ccc(NS(=O)(=O)O)cc1)c1csc(-c2cccs2)n1 [Compound 1 sodium salt] the “Average” value [1] was 266 ng/g, the “Conc. (ng/g) OD” value [1] was 264 ng/g and 282 ng/g and the “Conc. (ng/g) OS” value [1] was 282 ng/g and 235 ng/g. For the same molecule, the “Conc. (ng/mL) OD” value [1] was 24.0 ng/mL and 25.6 ng/mL, the “Conc. (ng/mL) OS” value [1] was 25.6 ng/mL and 21.4 ng/mL and the “Average” value (Choroid, 0.5 hr, topical ocular 1.2 mg/eye (Group 1)) was 57.7 ng/g. The “Average” value [2] was 200 ng/g, the “Conc. (ng/g) OD” value [2] was 320 ng/g and 211 ng/g and the “Conc. (ng/g) OS” value [2] was 144 ng/g and 125 ng/g. For the same molecule, the “Conc. (ng/mL) OD” value [2] was 29.1 ng/mL and 19.2 ng/mL, the “Conc. (ng/mL) OS” value [2] was 13.1 ng/mL and 11.4 ng/mL and the “Average” value [3] was 32.2 ng/g. For the same molecule, the “Conc. (ng/g) OD” value [3] was 61.2 ng/g and 31.8 ng/g, the “Conc. (ng/g) OS” value [3] was 16.5 ng/g and 19.5 ng/g and the “Conc. (ng/mL) OD” value [3] was 5.56 ng/mL and 2.89 ng/mL. The “Conc. (ng/mL) OS” value [3] was 1.50 ng/mL and 1.77 ng/mL, the “Average” value (Choroid, 2 hr, subcutaneous 5 mg/kg/dose (Group 2)) was 68.8 ng/g and the “Average” value [4] was 59.2 ng/g. The “Conc. (ng/g) OS” value [4] was 43.9 ng/g and 64.5 ng/g, the “Conc. (ng/mL) OS” value [4] was 3.99 ng/mL and 5.86 ng/mL and the “Average” value [5] was 15.5 ng/g. For the same molecule, the “Conc. (ng/g) OD” value [5] was 18.7 ng/g and 16.5 ng/g, the “Conc. (ng/g) OS” value [5] was 13.4 ng/g and the “Conc. (ng/mL) OD” value [5] was 1.70 ng/mL and 1.50 ng/mL. For the same molecule, the “Conc. (ng/mL) OS” value [5] was 1.22 ng/mL, the “Average” value [6] was 165 ng/g and the “Conc. (ng/g) OD” value [6] was 27.8 ng/g and 52.1 ng/g. For the same molecule, the “Conc. (ng/g) OS” value [6] was 81.1 ng/g, the “Conc. (ng/mL) OD” value [6] was 2.53 ng/mL and 4.74 ng/mL and the “Average” value [7] was 19.4 ng/g. For the same molecule, the “Conc. (ng/g) OS” value [7] was 27.1 ng/g and 21.3 ng/g, the “Conc. (ng/mL) OS” value [7] was 2.46 ng/mL and 1.94 ng/mL and the “Average” value [8] was 1015 ng/g. For the same molecule, the “Conc. (ng/g) OD” value [8] was 240 ng/g and 370 ng/g, the “Conc. (ng/g) OS” value [8] was 427 ng/g and the “Conc. (ng/mL) OD” value [8] was 21.8 ng/mL and 33.6 ng/mL. The “Average” value [9] was 31.1 ng/g, the “Conc. (ng/g) OD” value [9] was 26.1 ng/g and 23.4 ng/g and the “Conc. (ng/g) OS” value [9] was 25.3 ng/g. The “Conc. (ng/mL) OD” value [9] was 2.37 ng/mL and 2.13 ng/mL, the “Conc. (ng/mL) OS” value [9] was 4.52 ng/mL and 2.30 ng/mL and the “Average” value [10] was 548 ng/g. For the same molecule, the “Conc. (ng/g) OS” value [10] was 482 ng/g and 532 ng/g, the “Conc. (ng/mL) OS” value [10] was 43.8 ng/mL and 48.4 ng/mL and the “Average” value [11] was 9.45 ng/g. For the same molecule, the “Conc. (ng/g) OD” value [11] was 11.7 ng/g, the “Conc. (ng/g) OS” value [11] was 11.0 ng/g and the “Average” value (Cornea, 2 hr, topical ocular 1.2 mg/eye (Group 1)) was 1073 ng/g. The “Average” value [12] was 10.1 ng/g, the “Conc. (ng/g) OD” value [12] was 8.27 ng/g and 9.60 ng/g and the “Conc. (ng/g) OS” value [12] was 8.62 ng/g and 13.9 ng/g. For the same molecule, the “Conc. (ng/mL) OD” value [12] was 0.752 ng/mL and 0.873 ng/mL, the “Conc. (ng/mL) OS” value [12] was 0.784 ng/mL and 1.26 ng/mL and the “Average” value [13] was 534 ng/g. The “Conc. (ng/g) OD” value [13] was 493 ng/g and 362 ng/g, the “Conc. (ng/mL) OD” value [13] was 44.8 ng/mL and 32.9 ng/mL and the “Average Peak Concentration, Choroid” value [14] was 57.7 ng/g. For the same molecule, the “Average Peak Concentration, Cornea” value [14] was 1015 ng/g, the “Average Peak Concentration, Iris” value [14] was 24.3 ng/g and the “Average Peak Concentration, Retina” value [14] was 25.6 ng/g. For the same molecule, the “Average Peak Concentration, Choroid” value [15] was 266 ng/g, the “Average Peak Concentration, Cornea” value [15] was 19.4 ng/g and the “Average Peak Concentration, Iris” value [15] was 459 ng/g. For the same molecule, the “Average Peak Concentration, Retina” value [15] was 40.5 ng/g, the “Average Peak Concentration, Choroid” value [16] was 947375 ng/g and the “Average Peak Concentration, Cornea” value [16] was 71445 ng/g. For the same molecule, the “Average Peak Concentration, Iris” value [16] was 351725 ng/g, the “Average Peak Concentration, Retina” value [16] was 774400 ng/g and the “Average” value [17] was 459 ng/g. For the same molecule, the “Conc. (ng/g) OD” value [17] was 305 ng/g and 454 ng/g, the “Conc. (ng/mL) OD” value [17] was 27.7 ng/mL and 41.3 ng/mL and the “Average” value [18] was 24.3 ng/g. For the same molecule, the “Conc. (ng/g) OD” value [18] was 28.1 ng/g and 18.7 ng/g, the “Conc. (ng/g) OS” value [18] was 17.8 ng/g and 32.5 ng/g and the “Conc. (ng/mL) OD” value [18] was 2.55 ng/mL and 1.7 ng/mL. The “Conc. (ng/mL) OS” value [18] was 1.62 ng/mL and 2.95 ng/mL, the “Average” value [19] was 94.7 ng/g and the “Conc. (ng/g) OD” value [19] was 125 ng/g and 99.2 ng/g. For the same molecule, the “Conc. (ng/g) OS” value [19] was 97.6 ng/g and 56.4 ng/g, the “Conc. (ng/mL) OD” value [19] was 11.4 ng/mL and 9.02 ng/mL and the “Conc. (ng/mL) OS” value [19] was 8.87 ng/mL and 5.13 ng/mL. The “Average” value (Iris, 1 hr, topical ocular 1.2 mg/eye (Group 1)) was 55.2 ng/g, the “Average” value (Iris, 2 hr, subcutaneous 5 mg/kg/dose (Group 2)) was 29.7 ng/g and the “Average” value (Iris, 2 hr, topical ocular 1.2 mg/eye (Group 1)) was 51.9 ng/g. The “Average” value [20] was 30.4 ng/g, the “Conc. (ng/g) OD” value [20] was 33.8 ng/g and the “Conc. (ng/g) OS” value [20] was 34.1 ng/g. For the same molecule, the “Conc. (ng/mL) OD” value [20] was 2.12 ng/mL and 3.07 ng/mL, the “Average” value [21] was 261 ng/g and the “Conc. (ng/g) OD” value [21] was 32.7 ng/g and 27.9 ng/g. For the same molecule, the “Conc. (ng/g) OS” value [21] was 30.7 ng/g, the “Conc. (ng/mL) OD” value [21] was 2.97 ng/mL and 2.54 ng/mL and the “Average” value [22] was 40.5 ng/g. The “Conc. (ng/g) OD” value [22] was 30.5 ng/g and 34.9 ng/g, the “Conc. (ng/g) OS” value [22] was 48.0 ng/g and 48.7 ng/g and the “Conc. (ng/mL) OD” value [22] was 2.77 ng/mL and 3.17 ng/mL. For the same molecule, the “Conc. (ng/mL) OS” value [22] was 4.36 ng/mL and 4.43 ng/mL, the “Average” value [23] was 25.6 ng/g and the “Conc. (ng/g) OS” value [23] was 33.7 ng/g and 33.1 ng/g. For the same molecule, the “Conc. (ng/mL) OS” value [23] was 3.06 ng/mL and 3.01 ng/mL, the “Average” value [24] was 32.6 ng/g and the “Conc. (ng/g) OD” value [24] was 22.4 ng/g and 18.3 ng/g. For the same molecule, the “Conc. (ng/g) OS” value [24] was 43.2 ng/g and 46.4 ng/g, the “Conc. (ng/mL) OD” value [24] was 2.04 ng/mL and 1.66 ng/mL and the “Conc. (ng/mL) OS” value [24] was 3.93 ng/mL and 4.22 ng/mL. The “Average” value [25] was 59.2 ng/g, the “Conc. (ng/g) OD” value [25] was 76.9 ng/g and 85.9 ng/g and the “Conc. (ng/mL) OD” value [25] was 6.99 ng/mL and 7.81 ng/mL. For the same molecule, the “Average” value [26] was 16.4 ng/g, the “Conc. (ng/g) OD” value [26] was 15.0 ng/g and the “Conc. (ng/g) OS” value [26] was 17.8 ng/g. For the same molecule, the “Average” value (Retina, 2 hr, topical ocular 1.2 mg/eye (Group 1)) was 48.3 ng/g, the “Average” value [27] was 19.7 ng/g and the “Conc. (ng/g) OD” value [27] was 19.7 ng/g. The “Conc. (ng/mL) OS” value [27] was “BLOQ”, the “Average” value [28] was 405 ng/g and the “Conc. (ng/g) OS” value [28] was 64.8 ng/g. For the same molecule, the “Choroid Conc. OS” value (choroid homogenate, 6.0 hr, left eye, individual animals, intravitreal 2.5 mg/eye (~1.55 mg/kg), Group 4) was 105000 ng/mL and 44000 ng/mL and the “Choroid Conc. OD” value (choroid homogenate, 6.0 hr, right eye, individual animals, intravitreal 2.5 mg/eye (~1.55 mg/kg), Group 4) was 164000 ng/mL and 31500 ng/mL.
